# Test results: patent publication US20250059198A1, “BRM DEGRADING COMPOUNDS AND ASSOCIATED METHODS OF USE” (Arvinas Operations, Inc., priority 2021, published 2025)
# Molecular target: T1, BRM (Homo sapiens, UniProt P51531)
# T1 construct: Western Blot Screen of BRM Degradation in SW1573 Cells; endogenous in cells; host or cells: SW1573 cells
# Test: BRM degradation (Dmax and DC50) in SW1573 cells, Western blot screen / In-Cell Western screen
# Assay type: cell-based
# Conditions: overnight (18-20 hours) treatment; for Dmax: read-out: Dmax (%)** (% degraded)
# Description: (§1) To assess BRM degradation (Dmax and DC50) cells were seeded at 8000/well in 96-well black/clear-bottom plates in 180 μL DMEM growth media (containing 1% pen-strep, 1% HEPES and 10% FBS) per well. Plates were incubated overnight to allow adhesion. The next morning cells were treated by adding 20 μL of 10× target compound concentration (1% DMSO) to appropriate wells and returned to incubator for overnight (18-20 hours). The final DMSO concentration was 0.1%.
# For lysing, adherent cells were washed once with 100 μL of DPBS. Cells were lysed in 40 μL of 1×RIPA+HALT protease inhibitor on ice for 10 minutes and frozen until use at −80° C. Thawed lysates were cleaned by filtration in 1.2 µm filter plates, or alternatively, were spun clean at 2300 g at 4° C. for 30 minutes.
# For blotting, for each Western sample 30 μL of lysate was added to 10 μL of 4× LDS sample buffer, then denatured at 95° C. for 5 minutes in the thermal cycler and placed on ice. Samples were loaded on 4-15% Tris/Glycine gels and run for 25 minutes at 250 constant volts in 1× Tris/Glycine buffer with 4 μL of ladder and 12 μL of each sample loaded for each blot. Protein was transferred from gels to NC with BioRad Turbo dry-transfer unit with the Turbo/midi default program. All blots were rinsed with ddH2O and blocked for 1 hour at room temperature in 5% BSA in TBST (0.1%) on rocker. Blots were exposed to primary antibody in 5% BSA in TBST (0.1%) overnight at 4° C. on rocker (1:1000 for BRM (Cell Signaling Tech. cat #11966) and 1:2000 for alpha-tubulin (Cell Signaling Tech. cat #3873), a control protein. Blot was washed with TBST (0.1%) three times for 5 minutes on rocker at room temperature. Secondary antibody was added, and blots were incubated on a room temperature rocker for 1 hour with 1:18,000 anti-rabbit-HRP and/or anti-mouse-HRP in 5% BSA in TBST (0.1%). Blots were washed three times in TBST (0.1%) for 5 minutes at room temperature on the rocker. Signal was developed with Femto Maximum Sensitivity substrate for 4 minutes and blots read on ChemiDoc™.
# as §1, with “DC50),” for “DC50)”, “10×” for “10× target”, “compound” for “compound concentration”
# For processing, the plates were removed from incubator, the media was removed, and immediately 200 μL of cold (4° C.) DPBS was added to all wells. DPBS was then removed, and 50 μL of 4% paraformaldehyde (PFA) in DPBS (4° C.) was added to all wells, and the plates were incubated at room temperature for 20 minutes. PFA was then removed, and 200 μL of TBS-T containing 0.5% Triton X-100 was added to all wells, and the plates were incubated at room temperature for 30 minutes. TBS-T containing 0.5% Triton X-100 was then removed, and 50 μL of Li-Cor blocking solution was added, and the plates were incubated at room temperature for a minimum of one hour. The blocking solution was removed, and 50 μL of Li-Cor blocking solution containing primary antibody cocktail was added (1:1000 for BRM (Cell Signaling Tech. cat #11966) and 1:2000 for alpha-tubulin (Sigma cat #T6074), a control protein. Plates were then placed in cold room until the next day.
# The next day plates were washed three times with TBS-T, 200 μL per well. Fifty […] of secondary antibody cocktail in LI-COR blocking solution (anti-rabbit_800 nm and anti-mouse_680 nm) was added to all wells (diluted 1:5000). The plates were incubated at room temperature for at least one hour while protected from light. The plates were washed twice with TBS-T, 200 μL per well.
# To read each plate TBS-T was removed, and each plate was inverted tapped on a paper towel. […]
# T1 sequence (P51531 whole entry): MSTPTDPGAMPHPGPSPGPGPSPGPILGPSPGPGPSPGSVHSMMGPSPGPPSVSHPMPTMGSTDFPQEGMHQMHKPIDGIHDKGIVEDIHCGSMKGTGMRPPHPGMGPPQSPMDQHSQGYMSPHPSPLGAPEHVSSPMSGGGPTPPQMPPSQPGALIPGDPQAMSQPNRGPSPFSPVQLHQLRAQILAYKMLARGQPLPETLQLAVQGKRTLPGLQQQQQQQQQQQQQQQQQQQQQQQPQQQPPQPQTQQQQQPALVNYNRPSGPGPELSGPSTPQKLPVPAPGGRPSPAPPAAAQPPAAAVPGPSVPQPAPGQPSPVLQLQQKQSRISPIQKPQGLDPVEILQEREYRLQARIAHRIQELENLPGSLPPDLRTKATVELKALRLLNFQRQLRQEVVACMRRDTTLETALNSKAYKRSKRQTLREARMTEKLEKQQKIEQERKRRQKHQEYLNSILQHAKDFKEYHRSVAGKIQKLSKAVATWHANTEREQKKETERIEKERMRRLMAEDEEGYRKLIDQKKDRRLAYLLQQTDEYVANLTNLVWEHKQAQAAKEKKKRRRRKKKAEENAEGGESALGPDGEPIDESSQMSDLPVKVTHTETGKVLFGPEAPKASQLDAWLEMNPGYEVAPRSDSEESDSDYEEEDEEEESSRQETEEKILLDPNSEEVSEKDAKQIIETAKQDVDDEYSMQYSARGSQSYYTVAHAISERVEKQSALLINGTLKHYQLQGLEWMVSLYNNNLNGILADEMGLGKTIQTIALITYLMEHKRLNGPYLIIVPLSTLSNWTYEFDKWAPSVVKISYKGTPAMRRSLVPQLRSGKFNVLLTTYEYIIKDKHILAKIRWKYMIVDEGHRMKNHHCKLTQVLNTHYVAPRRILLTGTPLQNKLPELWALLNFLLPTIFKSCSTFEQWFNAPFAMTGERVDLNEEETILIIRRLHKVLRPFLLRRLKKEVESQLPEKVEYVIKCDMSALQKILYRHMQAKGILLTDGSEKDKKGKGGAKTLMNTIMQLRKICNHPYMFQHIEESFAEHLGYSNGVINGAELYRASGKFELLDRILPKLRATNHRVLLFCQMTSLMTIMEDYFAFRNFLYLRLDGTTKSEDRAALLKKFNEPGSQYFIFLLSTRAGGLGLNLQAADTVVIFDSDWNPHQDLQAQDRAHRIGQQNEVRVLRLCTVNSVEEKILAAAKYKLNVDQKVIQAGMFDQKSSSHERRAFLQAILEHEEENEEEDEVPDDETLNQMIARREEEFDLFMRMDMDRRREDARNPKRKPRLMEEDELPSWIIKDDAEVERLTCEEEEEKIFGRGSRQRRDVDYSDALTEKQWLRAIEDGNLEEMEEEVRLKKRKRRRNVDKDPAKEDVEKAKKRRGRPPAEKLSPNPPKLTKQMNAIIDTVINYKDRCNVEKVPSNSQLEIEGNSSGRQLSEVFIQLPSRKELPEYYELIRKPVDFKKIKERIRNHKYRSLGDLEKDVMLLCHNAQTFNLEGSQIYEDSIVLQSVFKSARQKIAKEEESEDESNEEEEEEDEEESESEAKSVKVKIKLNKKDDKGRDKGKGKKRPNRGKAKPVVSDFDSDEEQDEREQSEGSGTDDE
compound,measurement,value
"CC(NC(=O)[C@@H]1C[C@@H](O)CN1C(=O)[C@@H](c1cc(N2CCC(CN3CCC(O[C@H]4C[C@H](Oc5cc(N6C7CCC6CN(c6cc(-c8ccccc8O)nnc6N)C7)ccn5)C4)CC3)CC2)no1)C(C)C)c1ccc(C#N)c(F)c1 (stereo partly drawn) [Compound 4, (2S,4R)-N-[1-(4-cyano-3-fluorophenyl)ethyl]-4-hydroxy-1-[(2R)-3-methyl-2-{3-[4-({4-[(1r,3r)-3-[(4-{3-[3-amino-6-(2-hydroxyphenyl)pyridazin-4-yl]-3,8-diazabicyclo[3.2.1]octan-8-yl}pyridin-2-yl)oxy]cyclobutoxy]piperidin-1-yl}methyl)piperidin-1-yl]-1,2-oxazol-5-yl}butanoyl]pyrrolidine-2-carboxamide]",DC50,< 2.5 nM
same,Dmax,> 75%
"Cc1ncsc1-c1ccc([C@H](C)NC(=O)[C@@H]2C[C@@H](O)CN2C(=O)[C@H](c2cc(N3CCC(CN4CCC(O[C@H]5C[C@H](Oc6cc(N7C8CCC7CN(c7cc(-c9ccccc9O)nnc7N)C8)ccn6)C5)CC4)CC3)no2)C(C)C)c(N)c1 [Compound 5, (2S,4R)-N-[(1S)-1-[2-amino-4-(4-methyl-1,3-thiazol-5-yl)phenyl]ethyl]-4-hydroxy-1-[(2S)-3-methyl-2-{3-[4-({4-[(1r,3r)-3-[(4-{3-[3-amino-6-(2-hydroxyphenyl)pyridazin-4-yl]-3,8-diazabicyclo[3.2.1]octan-8-yl}pyridin-2-yl)oxy]cyclobutoxy]piperidin-1-yl}methyl)piperidin-1-yl]-1,2-oxazol-5-yl}butanoyl]pyrrolidine-2-carboxamide]",DC50,≥ 30 nM
"Cc1ncsc1-c1ccc([C@H](C)NC(=O)[C@@H]2C[C@@H](O)CN2C(=O)[C@@H](c2cc(N3CCC(CN4CCC(O[C@H]5C[C@@H](N6CCC([C@H](C)n7cc(-c8cc(-c9ccccc9O)nnc8N)cn7)CC6)C5)CC4)CC3)no2)C(C)C)cc1 [Compound 8, (2S,4R)-4-hydroxy-N-[(1S)-1-[4-(4-methyl-1,3-thiazol-5-yl)phenyl]ethyl]-1-[(2R)-3-methyl-2-{3-[4-({4-[(1s,3s)-3-{4-[(1S)-1-{4-[3-amino-6-(2-hydroxyphenyl)pyridazin-4-yl]-1H-pyrazol-1-yl}ethyl]piperidin-1-yl}cyclobutoxy]piperidin-1-yl}methyl)piperidin-1-yl]-1,2-oxazol-5-yl}butanoyl]pyrrolidine-2-carboxamide]",DC50,< 2.5 nM
same,Dmax,> 75%
"Cc1ncsc1-c1ccc([C@H](C)NC(=O)[C@@H]2C[C@@H](O)CN2C(=O)[C@@H](c2cc(N3CCC(CN4CCC(O[C@H]5C[C@H](N6CCC([C@H](C)n7cc(-c8cc(-c9ccccc9O)nnc8N)cn7)CC6)C5)CC4)CC3)no2)C(C)C)cc1 [Compound 9, (2S,4R)-4-hydroxy-N-[(1S)-1-[4-(4-methyl-1,3-thiazol-5-yl)phenyl]ethyl]-1-[(2R)-3-methyl-2-{3-[4-({4-[(1r,3r)-3-{4-[(1S)-1-{4-[3-amino-6-(2-hydroxyphenyl)pyridazin-4-yl]-1H-pyrazol-1-yl}ethyl]piperidin-1-yl}cyclobutoxy]piperidin-1-yl}methyl)piperidin-1-yl]-,2-oxazol-5-yl}butanoyl]pyrrolidine-2-carboxamide]",DC50,< 2.5 nM
same,Dmax,> 75%
"Cc1ncsc1-c1ccc([C@H](C)NC(=O)[C@@H]2C[C@@H](O)CN2C(=O)[C@@H](c2cc(N3CCC(CN4CCC(N[C@H]5C[C@H](Oc6cc(N7C8CCC7CN(c7cc(-c9ccccc9O)nnc7N)C8)ccn6)C5)CC4)CC3)no2)C(C)C)cc1 [Compound 10, (2S,4R)-4-hydroxy-N-[(1S)-1-[4-(4-methyl-1,3-thiazol-5-yl)phenyl]ethyl]-1-[(2R)-3-methyl-2-(3-{4-[(4-{[(1rs,3rs)-3-[(4-{3-[3-amino-6-(2-hydroxyphenyl)pyridazin-4-yl]-3,8-diazabicyclo[3.2.1]octan-8-yl}pyridin-2-yl)oxy]cyclobutyl]amino}piperidin-1-yl)methyl]piperidin-1-yl}-1,2-oxazol-5-yl)butanoyl]pyrrolidine-2-carboxamide]",DC50,< 2.5 nM
same,Dmax,> 75%
"Cc1ncsc1-c1ccc([C@H](C)NC(=O)[C@@H]2C[C@@H](O)CN2C(=O)[C@@H](c2cc(N3CCC(CN4CCC(O[C@H]5C[C@H](N6CCC(O)(CN7C8CCC7CN(c7cc(-c9ccccc9O)nnc7N)C8)CC6)C5)CC4)CC3)no2)C(C)C)cc1 [Compound 11, (2S,4R)-4-hydroxy-N-[(1S)-1-[4-(4-methyl-1,3-thiazol-5-yl)phenyl]ethyl]-1-[(2R)-3-methyl-2-{3-[4-({4-[(1r,3r)-3-[4-({3-[3-amino-6-(2-hydroxyphenyl)pyridazin-4-yl]-3,8-diazabicyclo[3.2.1]octan-8-yl}methyl)-4-hydroxypiperidin-1-yl]cyclobutoxy]piperidin-1-yl}methyl)piperidin-1-yl]-1,2-oxazol-5-yl}butanoyl]pyrrolidine-2-carboxamide]",DC50,< 2.5 nM
same,Dmax,> 75%
"Cc1ncsc1-c1ccc([C@H](C)NC(=O)[C@@H]2C[C@@H](O)CN2C(=O)[C@H](c2cc(N3CCC(n4cnc(CN5CCC(O[C@H]6C[C@H](Oc7cc(N8C9CCC8CN(c8cc(-c%10ccccc%10O)nnc8N)C9)ccn7)C6)CC5)c4)CC3)no2)C(C)C)cc1 [Compound 12, (2S,4R)-4-hydroxy-N-[(1S)-1-[4-(4-methyl-1,3-thiazol-5-yl)phenyl]ethyl]-1-[(2S)-3-methyl-2-(3-{4-[4-({4-[(1r,3r)-3-[(4-{3-[3-amino-6-(2-hydroxyphenyl)pyridazin-4-yl]-3,8-diazabicyclo[3.2.1]octan-8-yl}pyridin-2-yl)oxy]cyclobutoxy]piperidin-1-yl}methyl)-1H-imidazol-1-yl]piperidin-1-yl}-1,2-oxazol-5-yl)butanoyl]pyrrolidine-2-carboxamide]",DC50,≥ 30 nM
"Cc1ncsc1-c1ccc([C@H](C)NC(=O)[C@@H]2C[C@@H](O)CN2C(=O)[C@H](c2cc(N3CCC(C4(N5CCC(O[C@H]6C[C@H](Oc7cc(N8C9CCC8CN(c8cc(-c%10ccccc%10O)nnc8N)C9)ccn7)C6)CC5)CC4)CC3)no2)C(C)C)cc1 [Compound 13, (2S,4R)-4-hydroxy-N-[(3S)-3-[4-(4-methyl-3,3-thiazol-5-yl)phenyl]ethyl]-3-[(2S)-3-methyl-2-{3-[4-(3-{4-[(1r,3r)-3-[(4-{3-[3-amino-6-(2-hydroxyphenyl)pyridazin-4-yl]-3,8-diazabicyclo[3.2.3]octan-8-yl}pyridin-2-yl)oxy]cyclobutoxy]piperidin-1-yl}cyclopropyl)piperidin-1-yl]-1,2-oxazol-5-yl}butanoyl]pyrrolidine-2-carboxamide]",DC50,≥ 30 nM
"CC(C)[C@@H](C(=O)N1C[C@H](O)C[C@H]1C(=O)N[C@@H](C)c1ccc(C#N)cc1)c1cc(N2CCC(CN3CCC(O[C@H]4C[C@H](Oc5cc(N6C7CCC6CN(c6cc(-c8ccccc8O)nnc6N)CC7)ccn5)C4)CC3)CC2)no1 (stereo partly drawn) [Compound 14, (2S,4R)-N-[(1S)-1-(4-cyanophenyl)ethyl]-4-hydroxy-1-[(2R)-3-methyl-2-{3-[4-({4-[(1r,3r)-3-[(4-{3-[3-amino-6-(2-hydroxyphenyl)pyridazin-4-yl]-3,9-diazabicyclo[4.2.1]nonan-9-yl}pyridin-2-yl)oxy]cyclobutoxy]piperidin-1-yl}methyl)piperidin-1-yl]-1,2-oxazol-5-yl}butanoyl]pyrrolidine-2-carboxamide]",DC50,< 2.5 nM
same,Dmax,> 75%
